Reference: ChEMBL document CHEMBL1201862, “PubChem BioAssay data set” (2004)
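A five-concentration, 48-hour dose response in 96-well plates underlies each endpoint, interpolated linearly between surrounding concentrations. Abbreviation: GI50, concentration required for 50% inhibition of growth.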 The source made the active and inactive calls. No stated cut-off is given here; in the data, active = GI50 up to about 1.1 µM and inactive = higher.

Assays:
Assay in all cases: DTP human tumour cell line panel, 48 h
786-0 = system: 786-0
A498 = system: A498
A549 = system: A549
ACHN = system: ACHN
BT-549 = system: BT-549
CAKI-1 = system: CAKI-1
COLO 205 = system: COLO 205
DU-145 = system: DU-145
EKVX = system: EKVX
HCC 2998 = system: HCC 2998
HCT-116 = system: HCT-116
HCT-15 = system: HCT-15
HL-60 = system: HL-60
HOP-62 = system: HOP-62
HOP-92 = system: HOP-92
HT-29 = system: HT-29
Hs-578T = system: Hs-578T
IGROV-1 = system: IGROV-1
K562 = system: K562
KM12 = system: KM12
LOX IMVI = system: LOX IMVI
M14 = system: M14
MCF7 = system: MCF7
MDA-MB-231 = system: MDA-MB-231
MDA-MB-435 = system: MDA-MB-435
MDA-N = system: MDA-N
MOLT-4 = system: MOLT-4
Malme-3M = system: Malme-3M
NCI-H226 = system: NCI-H226
NCI-H23 = system: NCI-H23
NCI-H460 = system: NCI-H460
NCI-H522 = system: NCI-H522
NCI/ADR-RES = system: NCI/ADR-RES
OVCAR-3 = system: OVCAR-3
OVCAR-4 = system: OVCAR-4
OVCAR-5 = system: OVCAR-5
OVCAR-8 = system: OVCAR-8
PC-3 = system: PC-3
RPMI-8226 = system: RPMI-8226
RXF 393 = system: RXF 393
SF-268 = system: SF-268
SF-295 = system: SF-295
SF-539 = system: SF-539
SK-MEL-28 = system: SK-MEL-28
SK-MEL-2 = system: SK-MEL-2
SK-MEL-5 = system: SK-MEL-5
SK-OV-3 = system: SK-OV-3
SN12C = system: SN12C
SNB-19 = system: SNB-19
SNB-75 = system: SNB-75
SW-620 = system: SW-620
T47D = system: T47D
TK-10 = system: TK-10
U-251 = system: U-251
UACC-257 = system: UACC-257
UACC-62 = system: UACC-62
UO-31 = system: UO-31
CCRF-CEM = system: CCRF-CEM
SR = system: SR

In the case of `Oc1ccc(NCc2cc(O)ccc2O)cc1`, the GI50 (786-0) is reported as 15 µM (inactive), the GI50 (A498) is reported as 28.4 µM (inactive) and the GI50 (A549) is reported as 53.1 µM (inactive). The GI50 (ACHN) was 16.1 µM (inactive), the GI50 (BT-549) was 12.7 µM (inactive) and the GI50 (CAKI-1) was 16 µM (inactive). For the same compound, the GI50 (COLO 205) was 23.3 µM (inactive), the GI50 (DU-145) was 18.5 µM (inactive) and the GI50 (EKVX) was 15.7 µM (inactive). For the same compound, the GI50 (HCC 2998) was 16.9 µM (inactive), the GI50 (HCT-116) was 15.3 µM (inactive) and the GI50 (HCT-15) was 15.6 µM. For the same compound, the GI50 (HL-60) was 3.03 µM (inactive), the GI50 (HOP-62) was 18.7 µM (inactive) and the GI50 (HOP-92) was 13.1 µM (inactive). For the same compound, the GI50 (HT-29) was 22.6 µM (inactive), the GI50 (Hs-578T) was 40.9 µM (inactive) and the GI50 (IGROV-1) was 16.4 µM (inactive). The GI50 (K562) was 19.2 µM (inactive), the GI50 (KM12) was 21.7 µM (inactive) and the GI50 (LOX IMVI) was 17.1 µM (inactive). The GI50 (M14) was 17.8 µM (inactive), the GI50 (MCF7) was 13.9 µM (inactive) and the GI50 (MDA-MB-231) was 13.2 µM (inactive). For the same compound, the GI50 (MDA-MB-435) was 16.4 µM (inactive), the GI50 (MDA-N) was 3.17 µM (inactive) and the GI50 (MOLT-4) was 3.07 µM (inactive). The GI50 (Malme-3M) was 19.1 µM (inactive), the GI50 (NCI-H226) was 18.9 µM (inactive) and the GI50 (NCI-H23) was 18.1 µM (inactive). The GI50 (NCI-H460) was 18.5 µM (inactive), the GI50 (NCI-H522) was 2.06 µM (inactive) and the GI50 (NCI/ADR-RES) was 18.4 µM (inactive). For the same compound, the GI50 (OVCAR-3) was 17.3 µM (inactive), the GI50 (OVCAR-4) was 16.5 µM (inactive) and the GI50 (OVCAR-5) was 18.3 µM (inactive). The GI50 (OVCAR-8) was 25.8 µM (inactive), the GI50 (PC-3) was 14.9 µM (inactive) and the GI50 (RPMI-8226) was 4.99 µM (inactive). For the same compound, the GI50 (RXF 393) was 15.3 µM (inactive), the GI50 (SF-268) was 17.2 µM (inactive) and the GI50 (SF-295) was 20.7 µM (inactive). For the same compound, the GI50 (SF-539) was 23.2 µM (inactive), the GI50 (SK-MEL-28) was 22.3 µM (inactive) and the GI50 (SK-MEL-2) was 18.2 µM (inactive). For the same compound, the GI50 (SK-MEL-5) was 16.9 µM (inactive), the GI50 (SK-OV-3) was 17.8 µM (inactive) and the GI50 (SN12C) was 15.3 µM (inactive). The GI50 (SNB-19) was 18.5 µM (inactive), the GI50 (SNB-75) was 17.2 µM (inactive) and the GI50 (SW-620) was 11.5 µM (inactive). For the same compound, the GI50 (T47D) was 19.6 µM (inactive), the GI50 (TK-10) was 16 µM (inactive) and the GI50 (U-251) was 15.7 µM (inactive). For the same compound, the GI50 (UACC-257) was 14.9 µM (inactive), the GI50 (UACC-62) was 15.4 µM (inactive) and the GI50 (UO-31) was 14.1 µM (inactive).

For `c1ccc(-c2sc(-c3cccs3)cc2Cc2cccs2)cc1`, the GI50 (786-0) was > 10 µM (inactive), the GI50 (A549) was > 10 µM (inactive) and the GI50 (ACHN) was > 10 µM (inactive). The GI50 (BT-549) was > 10 µM (inactive), the GI50 (CAKI-1) was > 10 µM (inactive) and the GI50 (CCRF-CEM) was > 10 µM (inactive). For the same compound, the GI50 (COLO 205) was > 10 µM (inactive), the GI50 (DU-145) was > 10 µM (inactive) and the GI50 (EKVX) was > 10 µM (inactive). For the same compound, the GI50 (HCC 2998) was > 10 µM (inactive), the GI50 (HCT-116) was > 10 µM (inactive) and the GI50 (HCT-15) was greater than 10 µM. The GI50 (HL-60) was > 10 µM (inactive), the GI50 (HOP-62) was > 10 µM (inactive) and the GI50 (HOP-92) was > 10 µM (inactive). The GI50 (HT-29) was > 10 µM (inactive), the GI50 (Hs-578T) was > 10 µM (inactive) and the GI50 (IGROV-1) was > 10 µM (inactive). The GI50 (K562) was > 10 µM (inactive), the GI50 (KM12) was > 10 µM (inactive) and the GI50 (LOX IMVI) was > 10 µM (inactive). For the same compound, the GI50 (M14) was > 10 µM (inactive), the GI50 (MCF7) was > 10 µM (inactive) and the GI50 (MDA-MB-231) was > 10 µM (inactive). For the same compound, the GI50 (MDA-MB-435) was > 10 µM (inactive), the GI50 (MDA-N) was > 10 µM (inactive) and the GI50 (MOLT-4) was > 10 µM (inactive). The GI50 (Malme-3M) was > 10 µM (inactive), the GI50 (NCI-H226) was > 10 µM (inactive) and the GI50 (NCI-H23) was > 10 µM (inactive). For the same compound, the GI50 (NCI-H460) was > 10 µM (inactive), the GI50 (NCI-H522) was > 10 µM (inactive) and the GI50 (NCI/ADR-RES) was > 10 µM (inactive). For the same compound, the GI50 (OVCAR-4) was > 10 µM (inactive), the GI50 (OVCAR-8) was > 10 µM (inactive) and the GI50 (PC-3) was > 10 µM (inactive). The GI50 (RPMI-8226) was > 10 µM (inactive), the GI50 (RXF 393) was > 10 µM (inactive) and the GI50 (SF-268) was > 10 µM (inactive). The GI50 (SF-295) was > 10 µM (inactive), the GI50 (SF-539) was > 10 µM (inactive) and the GI50 (SK-MEL-28) was > 10 µM (inactive). The GI50 (SK-MEL-5) was > 10 µM (inactive), the GI50 (SK-OV-3) was > 10 µM (inactive) and the GI50 (SN12C) was > 10 µM (inactive). For the same compound, the GI50 (SNB-19) was > 10 µM (inactive), the GI50 (SNB-75) was > 10 µM (inactive) and the GI50 (SR) was > 10 µM (inactive). For the same compound, the GI50 (SW-620) was > 10 µM (inactive), the GI50 (T47D) was > 10 µM (inactive) and the GI50 (TK-10) was > 10 µM (inactive). For the same compound, the GI50 (UACC-257) was > 10 µM (inactive), the GI50 (UACC-62) was > 10 µM (inactive) and the GI50 (UO-31) was > 10 µM (inactive).
